Type in all cases: in vivo
For assay [1], the system named is dysuria model rat (STZ-treated female Wistar rats). The experiment in a line: Effects of cholinergic agent and α1 blocker on vesicourethral dyssynergia of dysuria model rat (Comparative Example 2). To be noted: STZ model four weeks after preparation; bethanechol 1 mg/kg i.v., tamsulosin 0.3 mg/kg i.v.; under urethane anesthesia; vs control (physiological saline). The method, then:
The effects of a cholinergic agent (detrusor contracting agent: bethanechol) and an al blocker (urethra relaxation agent: tamsulosin) on vesicourethral dyssynergia were evaluated.
The dysuria models in the present example were prepared by treating 10-week-old female Wistar rats with STZ (65 mg/kg, i.p.). The Sham group was prepared by treating the rats with a citric acid buffer solution instead of STZ. Four weeks after the preparation of the models, the intravesical and urethral pressure was measured under urethane anesthesia, thereby evaluating the effects of the test drugs (vehicle: physiological saline solution, bethanechol 1 mg/kg i.v., and tamsulosin 0.3 mg/kg i.v.) with regard to the cooperation of the bladder and the urethra.

Assay [2] shares this test system. The experiment in a line: Effect of ameliorating vesicourethral dyssynergia in dysuria model rat (Test Example 1). To be noted: STZ 65 mg/kg i.p. model; 30 mg/kg p.o. twice a day for four weeks starting four weeks after model preparation; measured under urethane anesthesia; control (6% Gelucire) 3.7±0.7. The method, then: The effect of 3-(15-hydroxypentadecyl)-2,4,4-trimethyl-2-cyclohexene-1-one (hereinafter referred to as “Compound 1 of the present invention”) on vesicourethral dyssynergia was evaluated.
The dysuria models in this example were prepared by treating 10-week-old female Wistar rats with streptozotocin (hereinafter referred to as STZ; in an amount of 65 mg/kg, i.p.). The Sham group was prepared by treating the rats with a citric acid buffer solution instead of STZ. The test drugs (vehicle: 6% Gelucire, Compound 1 of the present invention 30 mg/kg) were orally administered to each group after four weeks from the preparation of the models (at a time dysuria is assumed to be developed) twice a day for four weeks. On the day following the final administration, the intravesical and urethral pressure was measured under urethane anesthesia, thereby evaluating the cooperation of the bladder and the urethra.
Further, in contrast to the control group receiving vehicle (6% Gelucire) having a time lag of 3.7±0.7 seconds, the time lag in the group receiving Compound 1 of the present invention was reduced to 2.0±0.4 seconds, showing a significant effect of ameliorating vesicourethral dyssynergia.

Assay [3] shares this test system. The experiment in a line: Effect on maximum voiding quantity in dysuria model rat (Test Example 2). To be noted: 30 mg/kg p.o. twice a day for four weeks, under urethane anesthesia, Sham 1.45 ± 0.14, Control 2.25 ± 0.68, *p < 0.05 vs. control. The method, then: The dysuria models in this example were prepared in the same manner as in Test Example 1 by treating 10-week-old female Wistar rats with STZ (65 mg/kg, i.p.). The test drugs (vehicle: 6% Gelucire, Compound 1 of the present invention 30 mg/kg) were orally administered to each group after four weeks from the preparation of the models (at a time dysuria is assumed to be developed) twice a day for four weeks. On the day following the final administration, the maximum voiding quantity was measured under urethane anesthesia.

Assay [4] deals with model rat having spinal cord injury (female Wistar rats). The experiment in a line: Effect on voiding dysfunction based on vesicourethral dyssynergia in spinal cord injury model rat (Test Example 3). Particulars: spinal cord injury model (Th8-9); 250 mg/kg p.o. once a day for four weeks; vs control group (6% Gelucire). The method, then: The effect of Compound 1 of the present invention on dysuria was evaluated using a model rat having spinal cord injury, which is a typical disease causing dysuria due to vesicourethral dyssynergia.
The dysuria models in this example were prepared by placing a 40 g weight on the spinal cord in the eighth to ninth thoracic vertebrae (Th8-9) of 7-week-old female Wistar rats for 30 minutes.
The test drugs (vehicle: 6% Gelucire, Compound 1 of the present invention 250 mg/kg) were orally administered to each group from the day following the preparation of the models once a day for four weeks. On the day following the final administration, cystometry was performed in a wakeful state, thereby evaluating the voiding function (micturition efficiency).

For the molecule `CC(C[N+](C)(C)C)OC(N)=O` (centres unmarked) [Bethanechol, bethanechol], in assay [1], the “effect on extension of the time lag between the bladder contraction and the urethra relaxation” value was “no effects”.
As to `CC1=C(CCCCCCCCCCCCCCCO)C(C)(C)CCC1=O` [Compound 1 of the present invention, 3-(15-hydroxypentadecyl)-2,4,4-trimethyl-2-cyclohexene-1-one], the “time lag between the bladder contraction and the urethra relaxation” value in assay [2] was 2.0 ± 0.4 s. The Maximum voided volme in assay [3] is listed as 4.44 ± 0.85* mL. In addition, the “micturition efficiency (cystometry in a wakeful state)” value in assay [4] was “significant increase in micturition efficiency”.
As to `CCOc1ccccc1OCCN[C@H](C)Cc1ccc(OC)c(S(N)(=O)=O)c1` [tamsulosin], the “effect on extension of the time lag between the bladder contraction and the urethra relaxation” value in assay [1] is “no effects”.

The values are drawn from patent publication US9271948B2, “Agent for improving vesicourethral dyssynergia” (TAIHO PHARMACEUTICAL CO., LTD., priority 2013, dated 2016).
